Test results published in US10590113B2, “6-hydroxy-4-oxo-1,4-dihydropyrimidine-5-carboxamides as APJ agonists” (priority 2016, dated 2020).

biological target: T1, human APJ receptor (Homo sapiens, UniProt P35414); assay: Intracellular cAMP Accumulation Assay (APJ hcAMP, HTRF); type: cell-based; settings: not given
T1 construct: expressed in transfected cells; host or cells: HEK293
T1 sequence (P35414 1-380): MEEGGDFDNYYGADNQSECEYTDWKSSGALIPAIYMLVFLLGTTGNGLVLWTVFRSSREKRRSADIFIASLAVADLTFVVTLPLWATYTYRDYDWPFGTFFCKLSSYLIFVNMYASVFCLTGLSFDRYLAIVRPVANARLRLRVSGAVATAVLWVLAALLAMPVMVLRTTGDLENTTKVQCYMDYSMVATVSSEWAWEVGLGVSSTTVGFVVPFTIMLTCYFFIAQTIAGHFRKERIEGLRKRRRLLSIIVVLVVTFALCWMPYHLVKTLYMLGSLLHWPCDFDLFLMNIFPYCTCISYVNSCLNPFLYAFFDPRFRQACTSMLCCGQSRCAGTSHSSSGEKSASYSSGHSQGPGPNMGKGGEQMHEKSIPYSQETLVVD
Summary of the method: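 Stably transfected HEK293 cells (5,000/well) incubated 30 min at room temperature with serially diluted compound, […] and 2 μM forskolin. cAMP measured by HTRF after 60 min with detection reagents, quantified against a cAMP standard curve; EC50 from variable-slope sigmoidal fit of inhibition of forskolin-stimulated cAMP.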

**Q.** With `CCCCc1nc(=O)c(C(=O)N2CCC(c3cccnc3)C2)c(O)n1-c1c(OC)cccc1OC` (single isomer, unassigned) [Example 75, 2-butyl-1-(2,6-dimethoxyphenyl)-6-hydroxy-5-[3-(pyridin-3-yl)pyrrolidine-1-carbonyl]-1,4-dihydropyrimidin-4-one] as the molecule, how does the EC50 read?
**A.** Its EC50 is 0.01 to 10 nM.

**Q.** For `CCOCc1nc(=O)c(C(=O)N2CC[C@@H](c3ccccc3)C2)c(O)n1-c1c(OC)cccc1OC` [Example 29, (S)-1-(2,6-dimethoxyphenyl)-2-(ethoxymethyl)-6-hydroxy-5-(3-phenylpyrrolidine-1-carbonyl)pyrimidin-4(1H)-one], which EC50 is on record?
**A.** Its EC50 is 0.01 to 10 nM.

same assay, conditions: HEK293 cells stably expressing human APJ receptor; inhibition of forskolin-mediated cAMP production; read-out: Human APJ cAMP EC50 potency range

**Q.** For `C=CCCc1nc(O)c(C(=O)N2CC[C@H](c3ccccc3)C2)c(=O)n1-c1c(C)cccc1OC` (single isomer, unassigned) [Example 8], which EC50 is on record?
**A.** Its EC50 is 0.01 to 10 nM.

same assay, conditions: human APJ, cAMP accumulation; potency range class; read-out: hAPJ cAMP EC50 Potency range

**Q.** How did the EC50 turn out when `CCc1cccc(CC)c1-n1c(-c2cnn(CC)c2)nc(=O)c(C(=O)N2CCC(c3ccccc3F)C2)c1O` (single isomer, unassigned) [Example 310, 1-(2,6-diethylphenyl)-2-(1-ethyl-1H-pyrazol-4-yl)-5-[3-(2-fluorophenyl)pyrrolidine-1-carbonyl]-6-hydroxy-1,4-dihydropyrimidin-4-one] was run?
**A.** Its EC50 is 0.01 to 10 nM.

**Q.** `CCc1cccc(CC)c1-n1c(-c2ccn(C)n2)nc(=O)c(C(=O)N2CCC(c3ccc(F)cc3)C2)c1O` (single isomer, unassigned) [Example 272, 1-(2,6-diethylphenyl)-5-[3-(4-fluorophenyl)pyrrolidine-1-carbonyl]-6-hydroxy-2-(1-methyl-1H-pyrazol-3-yl)-1,4-dihydropyrimidin-4-one] was tested. Which EC50 did it give?
**A.** Its EC50 is 0.01 to 10 nM.

**Q.** Which EC50 does the source give for `COc1cccc(-c2nc(=O)c(C(=O)N3CCC(c4ncc(Cl)cc4F)C3)c(O)n2-c2c(OC)cccc2OC)c1` (single isomer, unassigned) [Example 261, 5-[3-(5-chloro-3-fluoropyridin-2-yl)pyrrolidine-1-carbonyl]-1-(2,6-dimethoxyphenyl)-6-hydroxy-2-(3-methoxyphenyl)-1,4-dihydropyrimidin-4-one] here?
**A.** Its EC50 is 0.01 to 10 nM.

**Q.** `COc1cccc(OC)c1-n1c(-c2ccc(Cl)cn2)nc(=O)c(C(=O)N2CCC(c3ccc(F)cc3F)C2)c1O` (single isomer, unassigned) [Example 287, 2-(5-chloropyridin-2-yl)-5-[3-(2,4-difluorophenyl)pyrrolidine-1-carbonyl]-1-(2,6-dimethoxyphenyl)-6-hydroxy-1,4-dihydropyrimidin-4-one] was tested. Which EC50 did it give?
**A.** The EC50 was 0.01 to 10 nM.

**Q.** With `CCc1cccc(CC)c1-n1c(-c2nc(C)cs2)nc(=O)c(C(=O)N2CCC(c3ncccc3F)C2)c1O` (single isomer, unassigned) [Example 307, 1-(2,6-diethylphenyl)-5-[3-(3-fluoropyridin-2-yl)pyrrolidine-1-carbonyl]-6-hydroxy-2-(4-methyl-1,3-thiazol-2-yl)-1,4-dihydropyrimidin-4-one] as the molecule, how does the EC50 read?
**A.** Its EC50 is 0.01 to 10 nM.

**Q.** Which EC50 does the source give for `COc1cccc(OC)c1-n1c(-c2cccc(C)c2)nc(=O)c(C(=O)N2CCC(c3ncc(F)cc3F)C2)c1O` (single isomer, unassigned) [Example 244, 5-[3-(3,5-difluoropyridin-2-yl)pyrrolidine-1-carbonyl]-1-(2,6-dimethoxyphenyl)-6-hydroxy-2-(3-methylphenyl)-1,4-dihydropyrimidin-4-one] here?
**A.** Its EC50 is 0.01 to 10 nM.

**Q.** How did the EC50 turn out when `COc1cccc(OC)c1-n1c(-c2ccn(C)n2)nc(=O)c(C(=O)N2CCC(c3ncc(Cl)cc3F)C2)c1O` (single isomer, unassigned) [Example 259, 5-[3-(5-chloro-3-fluoropyridin-2-yl)pyrrolidine-1-carbonyl]-1-(2,6-dimethoxyphenyl)-6-hydroxy-2-(1-methyl-1H-pyrazol-3-yl)-1,4-dihydropyrimidin-4-one] was run?
**A.** The EC50 was 0.01 to 10 nM.

**Q.** How did the EC50 turn out when `COc1cccc(OC)c1-n1c(CC2CC2)nc(=O)c(C(=O)N2CCC(c3ccncc3)C2)c1O` (single isomer, unassigned) [Example 230, 2-(cyclopropylmethyl)-1-(2,6-dimethoxyphenyl)-6-hydroxy-5-[3-(pyridin-4-yl)pyrrolidine-1-carbonyl]-1,4-dihydropyrimidin-4-one] was run?
**A.** Its EC50 is 10 to 100 nM.

**Q.** With `COc1cccc(OC)c1-n1c(-c2cccc(Cl)c2)nc(=O)c(C(=O)N2CCC(c3ncc(Cl)cc3F)C2)c1O` (single isomer, unassigned) [Example 264, 5-[3-(5-chloro-3-fluoropyridin-2-yl)pyrrolidine-1-carbonyl]-2-(3-chlorophenyl)-1-(2,6-dimethoxyphenyl)-6-hydroxy-1,4-dihydropyrimidin-4-one] as the molecule, how does the EC50 read?
**A.** The EC50 was 0.01 to 10 nM.

same assay, conditions: human APJ, intracellular cAMP accumulation; read-out: hAPJ cAMP EC50 Potency range

**Q.** Which EC50 does the source give for `COc1cccc(OC)c1-n1c(COC(C)C)nc(=O)c(C(=O)N2CCC(c3ccccc3Cl)C2)c1O` (single isomer, unassigned) [Example 92, 5-[3-(2-chlorophenyl)pyrrolidine-1-carbonyl]-1-(2,6-dimethoxyphenyl)-6-hydroxy-2-[(propan-2-yloxy)methyl]-1,4-dihydropyrimidin-4-one] here?
**A.** Its EC50 is 0.01 to 10 nM.

**Q.** Which EC50 does the source give for `CC[C@@H](c1cc(F)cc(F)c1)n1c(-c2ccn(C)n2)nc(=O)c(C(=O)N2CCC(c3ccccc3F)C2)c1O` (single isomer, unassigned) [Example 193] here?
**A.** Its EC50 is 0.01 to 10 nM.

**Q.** How did the EC50 turn out when `CC[C@@H](c1cc(F)cc(F)c1)n1c(-c2ccn(C)n2)nc(=O)c(C(=O)N2CCC(c3ncccc3F)C2)c1O` (single isomer, unassigned) [Example 201] was run?
**A.** Its EC50 is 0.01 to 10 nM.

**Q.** `CCCCc1nc(=O)c(C(=O)N2CC[C@@H](c3ccccc3)C2)c(O)n1[C@H](C)c1ccccc1OC` [Example 135, 2-butyl-6-hydroxy-3-[(1R)-1-(2-methoxyphenyl)ethyl]-5-[(3S)-3-phenylpyrrolidine-1-carbonyl]-3,4-dihydropyrimidin-4-one] was tested. Which EC50 did it give?
**A.** Its EC50 is 10 to 100 nM.

**Q.** How did the EC50 turn out when `CCCCc1nc(=O)c(C(=O)N2CC[C@H](c3ccccc3)C2)c(O)n1[C@@H](C)c1ccccc1` [Example 141, 2-butyl-6-hydroxy-3-[(1S)-1-phenylethyl]-5-[(3R)-3-phenylpyrrolidine-1-carbonyl]-3,4-dihydropyrimidin-4-one] was run?
**A.** Its EC50 is 10 to 100 nM.

**Q.** For `CCCCc1nc(=O)c(C(=O)N2Cc3ccncc3C2)c(O)n1-c1c(OC)cccc1OC` [Example 60, 2-butyl-1-(2,6-dimethoxyphenyl)-6-hydroxy-5-{1H,2H,3H-pyrrolo[3,4-c]pyridine-2-carbonyl}-1,4-dihydropyrimidin-4-one], which EC50 is on record?
**A.** Its EC50 is 10 to 100 nM.

**Q.** With `C=CCCc1nc(=O)c(C(=O)N2CC[C@H](c3ccccc3)C2)c(O)n1-c1c(C)cccc1OC` [Example 35, (R)-2-(but-3-en-1-yl)-6-hydroxy-3-(2-methoxy-6-methylphenyl)-5-(3-phenylpyrrolidine-1-carbonyl)pyrimidin-4(3H)-one] as the molecule, how does the EC50 read?
**A.** Its EC50 is 0.01 to 10 nM.

**Q.** Which EC50 does the source give for `COc1cccc(OC)c1-n1c(COC(C)C)nc(=O)c(C(=O)N2CCC(c3ccc(C#N)cc3)C2)c1O` (single isomer, unassigned) [Example 108, 4-{1-[1-(2,6-dimethoxyphenyl)-6-hydroxy-4-oxo-2-[(propan-2-yloxy)methyl]-1,4-dihydropyrimidine-5-carbonyl]pyrrolidin-3-yl}benzonitrile] here?
**A.** Its EC50 is 0.01 to 10 nM.

**Q.** For `CCCCc1nc(=O)c(C(=O)N2Cc3ccccc3C2)c(O)n1-c1c(OC)cccc1OC` [Example 66, 2-butyl-5-(2,3-dihydro-1H-isoindole-2-carbonyl)-1-(2,6-dimethoxyphenyl)-6-hydroxy-1,4-dihydropyrimidin-4-one], which EC50 is on record?
**A.** The EC50 was 0.01 to 10 nM.

**Q.** For `CC[C@@H](c1cc(F)cc(F)c1)n1c(-c2cnn(C)c2)nc(=O)c(C(=O)N2CCC(c3ccccc3OC)C2)c1O` (single isomer, unassigned) [Example 198], which EC50 is on record?
**A.** Its EC50 is 0.01 to 10 nM.

**Q.** For `CC[C@@H](c1cc(F)cc(F)c1)n1c(-c2ccn(C)n2)nc(=O)c(C(=O)N2CCC(c3ccc(F)cn3)C2)c1O` (single isomer, unassigned) [Example 199], which EC50 is on record?
**A.** The EC50 was 0.01 to 10 nM.

**Q.** With `CCCCc1nc(=O)c(C(=O)N2CC[C@@H](c3ccccc3)C2)c(O)n1[C@H](C)C1CC1` [Example 155, 2-butyl-3-[(1R)-1-cyclopropylethyl]-6-hydroxy-5-[(3S)-3-phenylpyrrolidine-1-carbonyl]-3,4-dihydropyrimidin-4-one] as the molecule, how does the EC50 read?
**A.** The EC50 was 100 to 300 nM.

**Q.** Which EC50 does the source give for `CCOCc1nc(=O)c(C(=O)N2CCC(c3ccccn3)C2)c(O)n1-c1c(OC)cccc1OC` (single isomer, unassigned) [Example 54, 1-(2,6-dimethoxyphenyl)-2-(ethoxymethyl)-6-hydroxy-5-[3-(pyridin-2-yl)pyrrolidine-1-carbonyl]-1,4-dihydropyrimidin-4-one] here?
**A.** The EC50 was 0.01 to 10 nM.

**Q.** Which EC50 does the source give for `CC[C@@H](c1cc(F)cc(F)c1)n1c(-c2cnn(C)c2)nc(=O)c(C(=O)N2CCC(c3ncc(F)cc3F)C2)c1O` (single isomer, unassigned) [Example 182] here?
**A.** The EC50 was 0.01 to 10 nM.

same assay, conditions: read-out: hAPJ cAMP EC50 Potency range

**Q.** How did the EC50 turn out when `CCCCc1nc(=O)c(C(=O)N2CCC(c3ccc(F)cn3)C2)c(O)n1-c1c(OC)cccc1OC` (single isomer, unassigned) [Example 371, 2-butyl-1-(2,6-dimethoxyphenyl)-5-(3-(5-fluoropyridin-2-yl)pyrrolidine-1-carbonyl)-6-hydroxypyrimidin-4(1H)-one] was run?
**A.** Its EC50 is 0.01 to 10 nM.

same assay, conditions: read-out: hAPJ cAMP EC50 Potency range; human APJ, intracellular cAMP accumulation

**Q.** For `CCCCc1nc(=O)c(C(=O)N2CCC(c3ccncc3)C2)c(O)n1-c1c(OC)cccc1OC` (single isomer, unassigned) [Example 48, 2-butyl-1-(2,6-dimethoxyphenyl)-6-hydroxy-5-[3-(pyridin-4-yl)pyrrolidine-1-carbonyl]-1,4-dihydropyrimidin-4-one], which EC50 is on record?
**A.** Its EC50 is 0.01 to 10 nM.
